Experimental findings from US20250388495A1, “WATER SA[…], SYSTEM AND METHOD” (WATERCO LIMITED, priority 2020, published 2025) are described below.

Data set [1] in a line: Monitoring of H2O2 and ClO2 levels in the test tank during the efficacy test. The format is physicochemical.
Excerpt: An apparatus was set up to simulate swimming pool conditions and followed the Australian Pesticides and Veterinary Medicines Authority (APMVA) guidelines. A water tank filled with 180 litres of water recirculates via an ECO 100 pump (Waterco) set at low speed. A Hydrochlor® head unit (Waterco) is connected to a 13-plate low salt cell which is set to run at 100% during the test. A Digiheat unit (Waterco) is set up to control temperature during the tests. A FlowVis® valve (Waterco) was used to estimate flow rate through the apparatus. […] A Kemio™ test kit (Palintest) was used to monitor chlorine dioxide levels. A WDPHRH PER Swimming Pool controller was used to monitor pH and oxidation-reduction potential (ORP) during the tests.
The nature of data set [2]: Field trials: stability of chlorine dioxide in water with hydrogen peroxide. The format is physicochemical. An excerpt:
For example, field trials indicate that chlorine dioxide will last in water up to 5 times longer when used in conjunction with hydrogen peroxide.
The process allows chlorine dioxide to remain active in water for up to and beyond 5 days.

The mark [3] stands for this setting: produced by electrolysis with hydrogen peroxide present.

For the molecule `OO` [Hydrogen peroxide], the “effect of the spike of pathogens on the level of the sanitiser” value in data set [1] is reported as “minimal”.
In the case of `[O][Cl+][O-]` [chlorine dioxide], in data set [2] (setting [3]), the “effect of ultraviolet light on chlorine dioxide residual in the water” value is recorded as “does not diminish” and the “time chlorine dioxide remains active in water” value is listed as at least 5 days. Besides, the “effect of agitation on chlorine dioxide levels” value in data set [2] (used in conjunction with hydrogen peroxide) was “not affected by agitation”. The “how much longer chlorine dioxide will last in water” value in data set [2] (used in conjunction with hydrogen peroxide, field trials) is given as “up to 5 times longer”. Moreover, the “effect of the spike of pathogens on the level of the sanitiser” value in data set [1] is “dramatically affected”.
